23 compounds from article PMC3113660 (Journal of medicinal chemistry, 2010) can be followed below.

A word on the IC50: it is the midpoint of a concentration-inhibition curve.

Experiment [1] relates to Plasmodium falciparum (K1, resistant to chloroquine). Description: In vitro growth inhibition assay of P. falciparum. The experiment is classed as cell-based. As to conditions: for IC50: Plasmodium falciparum, K1, read-out: antiplasmodial IC50, P. falciparum, in vitro.
The test system of experiment [2] is Trypanosoma brucei rhodesiense (STIB900). Put plainly: In vitro growth inhibition assay of T. brucei rhodesiense. The format is cell-based.

Where a name gives a salt, the structure may show the parent alone.

With `CC(C)NC(=N)c1cccc(-n2cc(-c3ccc(C(=N)NC(C)C)cc3O)nn2)c1` [Compound 44, 4-(4-N-Isopropylamidino-2-hydroxyphenyl)-1-(3-N-isopropylamidinophenyl)-1H-1,2,3-triazole Dihydrochloride], the IC50 in experiment [1] is < 58 nM.
Take `COc1cc(C2=NCCN2)ccc1-n1cc(-c2cccc(C3=NCCN3)c2)nn1.Cl.Cl` [Compound 21, 1-[4-(4,5-Dihydro-1H-imidazol-2-yl)-2-methoxyphenyl]-4-[3-(4,5-dihydro-1H-imidazol-2-yl)phenyl]-1H-1,2,3-triazole Dihydrochloride]: the “fold less active against T. brucei rhodesiense” value in experiment [2] (relative to congener 19) is given as 170 fold.
Turning to `Cl.Cl.c1cc(C2=NCCN2)cc(-n2cc(-c3ccc(C4=NCCN4)cc3)nn2)c1` [Compound 33, 1-[3-(4,5-Dihydro-1H-imidazol-2-yl)phenyl]-4-[4-(4,5-dihydro-1H-imidazol-2-yl)phenyl]-1H-1,2,3-triazole Dihydrochloride], the “fold less active against T. brucei rhodesiense” value in experiment [2] (relative to diamidine 31) is 77 fold.
`Cl.Cl.N=C(N)c1ccc(-c2cn(-c3ccc(C(=N)N)cc3O)nn2)cc1` [Compound 55, 1-(4-Amidino-2-hydroxyphenyl)-4-(4-amidinophenyl)-1H-1,2,3-triazole Dihydrochloride]: the “fold less active against T. brucei rhodesiense” value in experiment [2] (relative to dication 46) worked out at 125 fold.
Take `CC(C)NC(=N)c1ccc(-n2cc(-c3ccc(C(=N)NC(C)C)cc3O)nn2)cc1.Cl.Cl` [Compound 59, 4-(4-N-Isopropylamidino-2-hydroxyphenyl)-1-(4-N-isopropylamidinophenyl)-1H-1,2,3-triazole Dihydrochloride]: the IC50 in experiment [1] was < 58 nM.
Regarding `Cl.Cl.c1cc(C2=NCCN2)cc(-c2cn(-c3cccc(C4=NCCN4)c3)nn2)c1` [Compound 3, 1,4-Bis[3-(4,5-dihydro-1H-imidazol-2-yl)phenyl]-1H-1,2,3-triazole Dihydrochloride], the “fold less active against T. brucei rhodesiense” value in experiment [2] (relative to diamidine 1) is ~170 fold.
With `COc1cc(C(=N)N)ccc1-n1cc(-c2ccc(C(=N)N)cc2)nn1` [Compound 49, 1-(4-Amidino-2-methoxyphenyl)-4-(4-amidinophenyl)-1H-1,2,3-triazole Dihydrochloride], the IC50 in experiment [1] was < 58 nM.
As to `c1cc(-c2cn(-c3ccc(C4=NCCN4)cc3)nn2)ccc1C1=NCCN1` [Compound 48, 1,4-Bis(4-(4,5-dihydro-1H-imidazol-2-yl)phenyl)-1H-1,2,3-triazole Dihydrochloride], the IC50 in experiment [1] is < 58 nM.
In the case of `COc1cc(C(=N)NC(C)C)ccc1-c1cn(-c2ccc(C(=N)NC(C)C)cc2)nn1` [Compound 53, 4-(4-N-Isopropylamidino-2-methoxyphenyl)-1-(4-N-isopropylamidinophenyl)-1H-1,2,3-triazole Dihydrochloride], the IC50 in experiment [1] was < 58 nM.
For the compound `COc1ccc(C(=N)NC(C)C)cc1-n1cc(-c2ccc(C(=N)NC(C)C)cc2)nn1.Cl.Cl` [Compound 35, 1-(5-N-Isopropylamidino-2-methoxyphenyl)-4-(4-N-isopropylamidinophenyl)-1H-1,2,3-triazole Dihydrochloride], the “fold less active against P. falciparum” value in experiment [1] (relative to bis(N-isopropyl)amidine 32) amounted to 5 fold.
As for `Oc1cc(C2=NCCN2)ccc1-n1cc(-c2ccc(C3=NCCN3)cc2)nn1` [Compound 57, 1-[4-(4,5-Dihydro-1H-imidazol-2-yl)-2-hydroxyphenyl]-4-[4-(4,5-dihydro-1H-imidazol-2-yl)phenyl]-1H-1,2,3-triazole Dihydrochloride], in experiment [1], the IC50 was < 58 nM.
For `COc1ccc(C2=NCCN2)cc1-c1cn(-c2ccc(C3=NCCN3)cc2)nn1` [Compound 24, 4-[5-(4,5-Dihydro-1H-imidazol-2-yl)-2-methoxyphenyl]-1-[4-(4,5-dihydro-1H-imidazol-2-yl)phenyl]-1H-1,2,3-triazole Dihydrochloride], the IC50 in experiment [1] is < 58 nM.
Consider `Oc1cc(C2=NCCN2)ccc1-c1cn(-c2cccc(C3=NCCN3)c2)nn1` [Compound 45, 4-[4-(4,5-Dihydro-1H-imidazol-2-yl)-2-hydroxyphenyl]-1-[3-(4,5-dihydro-1H-imidazol-2-yl)phenyl]-1H-1,2,3-triazole Dihydrochloride], for which the concentration for half-maximal inhibition (IC50) in experiment [1] is < 58 nM.
In the case of `CC(C)NC(=N)c1cccc(-c2cn(-c3cc(C(=N)NC(C)C)ccc3O)nn2)c1.Cl.Cl` [Compound 11, 1-(5-N-Isopropylamidino-2-hydroxyphenyl)-4-(3-N-isopropylamidinophenyl)-1H-1,2,3-triazole Dihydrochloride], the results for the “fold lower antiplasmodial activity” value in experiment [1] (relative to congener 2) and in experiment [1] (relative to congener 5) were 7 fold and 6 fold, respectively.
For `CC(C)NC(=N)c1ccc(-n2cc(-c3cc(C(=N)NC(C)C)ccc3O)nn2)cc1` [Compound 29, 4-(5-N-Isopropylamidino-2-hydroxyphenyl)-1-(4-N-isopropylamidinophenyl)-1H-1,2,3-triazole Dihydrochloride], the IC50 in experiment [1] was < 58 nM.
On to `COc1cc(C2=NCCN2)ccc1-n1cc(-c2ccc(C3=NCCN3)cc2)nn1` [Compound 51, 1-[4-(4,5-Dihydro-1H-imidazol-2-yl)-2-methoxyphenyl]-4-[4-(4,5-dihydro-1H-imidazol-2-yl)phenyl]-1H-1,2,3-triazole Dihydrochloride], for which the IC50 in experiment [1] was < 58 nM.
Take `Cl.Cl.Oc1ccc(C2=NCCN2)cc1-n1cc(-c2cccc(C3=NCCN3)c2)nn1` [Compound 12, 1-[5-(4,5-Dihydro-1H-imidazol-2-yl)-2-hydroxyphenyl]-4-[3-(4,5-dihydro-1H-imidazol-2-yl)phenyl]-1H-1,2,3-triazole Dihydrochloride]: the “fold less active against T. brucei rhodesiense” value in experiment [2] (relative to diimidazoline 3) is listed as 7 fold.
Regarding `COc1cc(C2=NCCN2)ccc1-c1cn(-c2ccc(C3=NCCN3)cc2)nn1` [Compound 54, 4-[4-(4,5-Dihydro-1H-imidazol-2-yl)-2-methoxyphenyl]-1-[4-(4,5-dihydro-1H-imidazol-2-yl)phenyl]-1H-1,2,3-triazole Dihydrochloride], the IC50 in experiment [1] was < 58 nM.
Consider `COc1ccc(C(=N)N)cc1-n1cc(-c2ccc(C(=N)N)cc2)nn1.Cl.Cl` [Compound 34, 1-(5-Amidino-2-methoxyphenyl)-4-(4-amidinophenyl)-1H-1,2,3-triazole Dihydrochloride], for which, in experiment [1], the IC50 is < 58 nM. Also, the “fold less active against P. falciparum” value in experiment [1] (relative to congener 31) turned out to be 4 fold.
With `COc1cc(C(=N)NC(C)C)ccc1-n1cc(-c2ccc(C(=N)NC(C)C)cc2)nn1` [Compound 50, 1-(4-N-Isopropylamidino-2-methoxyphenyl)-4-(4-N-isopropylamidinophenyl)-1H-1,2,3-triazole Dihydrochloride], the 50% inhibitory concentration (IC50) in experiment [1] is < 58 nM.
In the case of `Cl.Cl.N=C(N)c1ccc(-c2cn(-c3cc(C(=N)N)ccc3O)nn2)cc1` [Compound 40, 1-(5-Amidino-2-hydroxyphenyl)-4-(4-amidinophenyl)-1H-1,2,3-triazole Dihydrochloride], the “fold less active against P. falciparum” value in experiment [1] (relative to congener 31) is on record as 308 fold.
With `Cl.Cl.Oc1ccc(C2=NCCN2)cc1-c1cn(-c2cccc(C3=NCCN3)c2)nn1` [Compound 15, 4-[5-(4,5-Dihydro-1H-imidazol-2-yl)-2-hydroxyphenyl]-1-[3-(4,5-dihydro-1H-imidazol-2-yl)phenyl]-1H-1,2,3-triazole Dihydrochloride], the IC50 in experiment [1] was < 58 nM. In experiment [1] (relative to diimidazoline 3), the “fold more active against P. falciparum” value amounted to 7 fold.
With `COc1ccc(C2=NCCN2)cc1-n1cc(-c2ccc(C3=NCCN3)cc2)nn1` [Compound 36, 1-[5-(4,5-Dihydro-1H-imidazol-2-yl)-2-methoxyphenyl]-4-[4-(4,5-dihydro-1H-imidazol-2-yl)phenyl]-1H-1,2,3-triazole Dihydrochloride], the IC50 in experiment [1] was < 58 nM.
